Data from ChEMBL document CHEMBL4808247 (Bioorg Med Chem, 2021).
In brackets after ≈: the same amount, converted by molar mass.

Legend:
Klebsiella pneumoniae [1] = assay: Antibacterial activity against Klebsiella pneumoniae PLE producing class D beta-lactamase, OXA-48 assessed as reduction in microbial growth incubated for 16 to 20 hrs by broth microdilution method; format: functional; settings: time 16-20 hrs
Enterobacter cloacae [2] = assay: Antibacterial activity against Enterobacter cloacae IR32 producing class B beta-lactamase, NDM1 assessed as reduction in microbial growth incubated for 16 to 20 hrs by broth microdilution method; format: functional; settings: time 16-20 hrs
Escherichia coli [3] = assay: Antibacterial activity against Escherichia coli NIHJ JC-2 assessed as reduction in microbial growth incubated for 16 to 20 hrs by broth microdilution method; format: functional; settings: time 16-20 hrs
Enterobacter cloacae [4] = assay: Antibacterial activity against Enterobacter cloacae SR36276 producing class C beta-lactamase, AmpC assessed as reduction in microbial growth incubated for 16 to 20 hrs by broth microdilution method; format: functional; settings: time 16-20 hrs
Escherichia coli [5] = assay: Antibacterial activity against Escherichia coli SR34100 producing class A beta-lactamase, CTX-M-15 assessed as reduction in microbial growth incubated for 16 to 20 hrs by broth microdilution method; format: functional; settings: time 16-20 hrs
Klebsiella pneumoniae [6] = assay: Antibacterial activity against Klebsiella pneumoniae JMI:211 producing class A beta-lactamase, KPC-2 assessed as reduction in microbial growth incubated for 16 to 20 hrs by broth microdilution method; format: functional; settings: time 16-20 hrs
Escherichia coli [7] = assay: Antibacterial activity against Escherichia coli BL21(DE3) transfected with pET9a vector harboring class A beta lactamase, CTX-M-15 incubated for 16 to 20 hrs by broth microdilution method; format: functional; settings: time 16-20 hrs
Escherichia coli [8] = assay: Antibacterial activity against Escherichia coli BL21(DE3) transfected with pET9a vector harboring class C beta lactamase, AmpC incubated for 16 to 20 hrs by broth microdilution method; format: functional; settings: time 16-20 hrs
[9] = Ratio of MIC for antibacterial activity against Escherichia coli BL21(DE3) transfected with pET9a vector harboring class C beta lactamase AmpC to MIC for antibacterial activity against Escherichia coli BL21(DE3); format: functional
Escherichia coli [10] = assay: Antibacterial activity against Escherichia coli BL21(DE3) transfected with pET9a empty vector incubated for 16 to 20 hrs by broth microdilution method; format: functional; settings: time 16-20 hrs
[11] = Ratio of MIC for antibacterial activity against Escherichia coli BL21(DE3) transfected with pET9a vector harboring class B beta lactamase NDM-1 to MIC for antibacterial activity against Escherichia coli BL21(DE3); format: functional
Escherichia coli [12] = assay: Antibacterial activity against Escherichia coli BL21(DE3) transfected with pET9a vector harboring class B beta lactamase, NDM-1 incubated for 16 to 20 hrs by broth microdilution method; format: functional; settings: time 16-20 hrs
Escherichia coli [13] = assay: Antibacterial activity against Escherichia coli BL21(DE3) transfected with pET9a vector harboring class D beta lactamase, OXA-48 incubated for 16 to 20 hrs by broth microdilution method; format: functional; settings: time 16-20 hrs
[14] = Inhibition of CMY-2 in Escherichia coil BL21 assessed as inhibition of nitrocefin hydrolysis measured every 3 mins for 15 mins by UV spectrophotometer analysis; parameters: species or system Escherichia coli BL21
Klebsiella pneumoniae [15] = assay: Antibacterial activity against Klebsiella pneumoniae ATCC13883 assessed as reduction in microbial growth incubated for 16 to 20 hrs by broth microdilution method; format: functional; settings: time 16-20 hrs

Structure (SMILES)	MIC (Klebsiella pneumoniae [1]) [µg/mL]	MIC (Enterobacter cloacae [2]) [µg/mL]	MIC (Escherichia coli [3]) [µg/mL]	MIC (Enterobacter cloacae [4]) [µg/mL]	MIC (Escherichia coli [5]) [µg/mL]	MIC (Klebsiella pneumoniae [6]) [µg/mL]	MIC (Escherichia coli [7]) [µg/mL]	MIC (Escherichia coli [8]) [µg/mL]	Ratio [9]	MIC (Escherichia coli [10]) [µg/mL]	Ratio [11]	MIC (Escherichia coli [12]) [µg/mL]	MIC (Escherichia coli [13]) [µg/mL]	Ki [14] [nM]	MIC (Klebsiella pneumoniae [15]) [µg/mL]
C[C@@H](O/N=C(\C(=O)N[C@@H]1C(=O)N2[C@@H]1SC[C@@H]1CC(=O)O[C@@]12C(=O)O)c1csc(N)n1)C(=O)O (stereo in doubt)	1	0.25	0.125	16	0.5	0.5	–	–	–	–	–	–	–	–	–
CC(C)(O/N=C(\C(=O)N[C@H]1CON(C2(C(=O)O)CCC(=O)O2)C1=O)c1csc(N)n1)C(=O)O (stereo in doubt)	1	1	0.25	> 32	4	–	0.063 (≈ 0.13 µM)	2 (≈ 4.12 µM)	32	0.063 (≈ 0.13 µM)	4	0.25 (≈ 0.515 µM)	0.063 (≈ 0.13 µM)	–	–
Nc1nc(/C(=N/OC2(C(=O)O)CC2)C(=O)N[C@@H]2C(=O)N3[C@@H]2[S@@+]([O-])C[C@@H]2CC(=O)O[C@@]23C(=O)O)cs1 (stereo in doubt)	0.5	0.25	0.25	0.25	0.5	0.5	–	–	–	–	–	–	–	–	–
CCO/N=C(\C(=O)N[C@@H]1C(=O)N2[C@@H]1[S@@+]([O-])C[C@@H]1CC(=O)O[C@@]12C(=O)O)c1csc(N)n1 (stereo in doubt)	4	0.5	0.25	1	0.5	0.5	–	–	–	–	–	–	–	–	–
Nc1nc(/C(=N/OCC(=O)O)C(=O)N[C@@H]2C(=O)N3[C@@H]2SC[C@@H]2CC(=O)O[C@@]23C(=O)O)cs1 (stereo in doubt)	1	0.125	0.063	8	0.25	0.125	–	–	–	–	–	–	–	400	0.125
Nc1nc(/C(=N/OCC(=O)O)C(=O)N[C@@H]2C(=O)N3[C@@H]2[S@+]([O-])C[C@@H]2CC(=O)O[C@@]23C(=O)O)cs1 (stereo in doubt)	0.5	2	0.25	> 32	1	0.5	–	–	–	–	–	–	–	–	–
Nc1nc(/C(=N/OCC(=O)O)C(=O)N[C@@H]2C(=O)N3[C@@H]2SC[C@@H]2CC(=O)O[C@@]23C(=O)O)ns1	1	0.5	0.125	4	0.25	0.125	–	–	–	–	–	–	–	–	–
C[C@@H](O/N=C(\C(=O)N[C@@H]1C(=O)N2[C@@H]1[S@@+]([O-])C[C@@H]1CC(=O)O[C@@]12C(=O)O)c1csc(N)n1)C(=O)O (stereo in doubt)	0.5	0.125	0.125	0.25	0.5	0.25	–	–	–	–	–	–	–	–	–
